Assay results from ChEMBL document CHEMBL1201862, “PubChem BioAssay data set” (2004).
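Compound exposure: 48 hours, 5 concentrations, 96-well plates. At the GI50, growth is halved.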 Active and inactive are the calls of the source. Cut-off read from the data, not from the text of the source: active = GI50 up to about 1.1 µM and inactive = higher.

Key:
Test in all cases: NCI-60 cell line screen, 48 h
UO-31 = system: UO-31
ACHN = system: ACHN
LOX IMVI = system: LOX IMVI
MDA-MB-231 = system: MDA-MB-231
SK-OV-3 = system: SK-OV-3
NCI-H226 = system: NCI-H226
MDA-N = system: MDA-N
Malme-3M = system: Malme-3M
Hs-578T = system: Hs-578T
K562 = system: K562
SN12C = system: SN12C
HOP-62 = system: HOP-62
SNB-19 = system: SNB-19
KM12 = system: KM12
RXF 393 = system: RXF 393
SK-MEL-2 = system: SK-MEL-2
SF-295 = system: SF-295
HCC 2998 = system: HCC 2998
NCI-H522 = system: NCI-H522
T47D = system: T47D

Cc1cc2c3c(c1)S(=O)(=O)c1cc(Cl)ccc1N3CCC2
GI50 (UO-31): > 100 µM (inactive) | GI50 (ACHN): > 100 µM (inactive) | GI50 (LOX IMVI): > 100 µM (inactive) | GI50 (MDA-MB-231): 83.9 µM (inactive) | GI50 (SK-OV-3): > 100 µM (inactive) | GI50 (NCI-H226): > 100 µM (inactive) | GI50 (MDA-N): > 100 µM (inactive) | GI50 (Malme-3M): > 100 µM (inactive) | GI50 (Hs-578T): 22 µM (inactive) | GI50 (K562): 96.8 µM (inactive) | GI50 (SN12C): > 100 µM (inactive) | GI50 (HOP-62): 76.7 µM (inactive) | GI50 (SNB-19): > 100 µM (inactive) | GI50 (KM12): > 100 µM (inactive) | GI50 (RXF 393): 55.2 µM (inactive) | GI50 (SK-MEL-2): > 100 µM (inactive) | GI50 (SF-295): 56 µM (inactive) | GI50 (HCC 2998): > 100 µM (inactive)

C=CCC(CC=O)(C(=O)OCC)C(=O)OCC
GI50 (NCI-H522): > 100 µM (inactive) | GI50 (UO-31): 76.2 µM (inactive) | GI50 (ACHN): > 100 µM (inactive) | GI50 (LOX IMVI): > 100 µM (inactive) | GI50 (MDA-MB-231): > 100 µM (inactive) | GI50 (SK-OV-3): > 100 µM (inactive) | GI50 (NCI-H226): > 100 µM (inactive) | GI50 (MDA-N): > 100 µM (inactive) | GI50 (Malme-3M): > 100 µM (inactive) | GI50 (Hs-578T): > 100 µM (inactive) | GI50 (K562): > 100 µM (inactive) | GI50 (SN12C): > 100 µM (inactive) | GI50 (HOP-62): > 100 µM (inactive) | GI50 (SNB-19): > 100 µM (inactive) | GI50 (KM12): > 100 µM (inactive) | GI50 (RXF 393): > 100 µM (inactive) | GI50 (SK-MEL-2): > 100 µM (inactive) | GI50 (SF-295): > 100 µM (inactive)

CCOC(=O)c1c(N2CCN(C)CC2)[nH]c(=O)c(C(c2c(Cl)cccc2Cl)c2c(O)c(C(=O)OCC)c(N3CCN(C)CC3)[nH]c2=O)c1O
GI50 (NCI-H522): 21.9 µM (inactive) | GI50 (UO-31): 21.5 µM (inactive) | GI50 (ACHN): 20.7 µM (inactive) | GI50 (LOX IMVI): 34.5 µM (inactive) | GI50 (MDA-MB-231): 25.5 µM (inactive) | GI50 (NCI-H226): 28.6 µM (inactive) | GI50 (Malme-3M): 22.6 µM (inactive) | GI50 (Hs-578T): 33.8 µM (inactive) | GI50 (K562): 25.8 µM (inactive) | GI50 (T47D): 16.5 µM (inactive) | GI50 (SN12C): 26.3 µM (inactive) | GI50 (HOP-62): 30.3 µM (inactive) | GI50 (SNB-19): 20.4 µM (inactive) | GI50 (KM12): 23.5 µM (inactive) | GI50 (RXF 393): 18.2 µM (inactive) | GI50 (SK-MEL-2): 26 µM (inactive) | GI50 (SF-295): 28.1 µM (inactive) | GI50 (HCC 2998): 36.8 µM (inactive)

C=C(C1=CC(=O)C(C)(C)O1)[C@@H]1CC=C([C@@H]2CC[C@H]3[C@@]2(C)CC[C@H]2C(C)(C)C(=O)[C@H](OC(=O)CC(C)(O)CC(=O)O)C[C@]32C)[C@H](O)O1 (some centres undefined)
GI50 (NCI-H522): 11.4 µM (inactive) | GI50 (UO-31): 13.6 µM (inactive) | GI50 (ACHN): 14 µM (inactive) | GI50 (LOX IMVI): 13.1 µM (inactive) | GI50 (MDA-MB-231): 17.4 µM (inactive) | GI50 (SK-OV-3): 19.2 µM (inactive) | GI50 (NCI-H226): 16.3 µM (inactive) | GI50 (MDA-N): 13.9 µM (inactive) | GI50 (Malme-3M): 13.4 µM (inactive) | GI50 (Hs-578T): 23.9 µM (inactive) | GI50 (K562): 25.7 µM (inactive) | GI50 (SN12C): 15.3 µM (inactive) | GI50 (HOP-62): 21.1 µM (inactive) | GI50 (SNB-19): 25.4 µM (inactive) | GI50 (KM12): 14.1 µM (inactive) | GI50 (RXF 393): 0.106 µM (active) | GI50 (SK-MEL-2): 12.9 µM (inactive) | GI50 (SF-295): 36.4 µM (inactive)

O=C(c1ccc(Cl)cc1)N1CCN=C1c1cc2ccccc2c2ccccc12
GI50 (UO-31): 16.9 µM (inactive) | GI50 (ACHN): 17.4 µM (inactive) | GI50 (LOX IMVI): 17.8 µM (inactive) | GI50 (MDA-MB-231): 16.2 µM (inactive) | GI50 (SK-OV-3): 16.1 µM (inactive) | GI50 (MDA-N): 16.4 µM (inactive) | GI50 (Malme-3M): 17.3 µM (inactive) | GI50 (Hs-578T): 17.5 µM (inactive) | GI50 (K562): 27.7 µM (inactive) | GI50 (T47D): 19.1 µM (inactive) | GI50 (SN12C): 16.9 µM (inactive) | GI50 (HOP-62): 18.8 µM (inactive) | GI50 (SNB-19): 16.4 µM (inactive) | GI50 (KM12): 15.8 µM (inactive) | GI50 (RXF 393): 16.1 µM (inactive) | GI50 (SK-MEL-2): 15.6 µM (inactive) | GI50 (SF-295): 16.6 µM (inactive)

O=C(NC(Cc1ccccc1)(Cc1ccc(O)cn1)C(=O)O)c1ccccc1 (centres undefined)
GI50 (NCI-H522): > 100 µM (inactive) | GI50 (UO-31): 86.5 µM (inactive) | GI50 (ACHN): > 100 µM (inactive) | GI50 (LOX IMVI): > 100 µM (inactive) | GI50 (MDA-MB-231): > 100 µM (inactive) | GI50 (SK-OV-3): > 100 µM (inactive) | GI50 (NCI-H226): 83 µM (inactive) | GI50 (MDA-N): > 100 µM (inactive) | GI50 (Malme-3M): > 100 µM (inactive) | GI50 (Hs-578T): > 100 µM (inactive) | GI50 (K562): > 100 µM (inactive) | GI50 (HOP-62): > 100 µM (inactive) | GI50 (SNB-19): > 100 µM (inactive) | GI50 (KM12): > 100 µM (inactive) | GI50 (RXF 393): > 100 µM (inactive) | GI50 (SK-MEL-2): > 100 µM (inactive) | GI50 (SF-295): 92 µM (inactive) | GI50 (HCC 2998): 99.1 µM (inactive)

Cc1ccc(S(=O)(=O)N/N=C2\CC(C)OC3=C2CCCCCC3)cc1 (centres undefined)
GI50 (UO-31): 17.4 µM (inactive) | GI50 (ACHN): 18.5 µM (inactive) | GI50 (LOX IMVI): 18.7 µM (inactive) | GI50 (MDA-MB-231): 19.1 µM (inactive) | GI50 (SK-OV-3): 26.1 µM (inactive) | GI50 (NCI-H226): 21.6 µM (inactive) | GI50 (MDA-N): > 100 µM (inactive) | GI50 (Malme-3M): 21.7 µM (inactive) | GI50 (Hs-578T): 21.2 µM (inactive) | GI50 (K562): 21.5 µM (inactive) | GI50 (T47D): 76.6 µM (inactive) | GI50 (SN12C): 19.3 µM (inactive) | GI50 (HOP-62): 18.5 µM (inactive) | GI50 (SNB-19): 22.2 µM (inactive) | GI50 (KM12): 19.7 µM (inactive) | GI50 (RXF 393): 17.6 µM (inactive) | GI50 (SF-295): 15.8 µM (inactive)
